Assay results from patent US4264577A, “Contraceptive methods and compositions” (Eli Lilly and Company, priority 1980, dated 1981).

What was measured:
[1] = target: T1, Acrosin (purified from boar sperm) (Sus scrofa, UniProt P08001); test: Acrosin inhibition in vitro (BAPNA substrate); type: biochemical; settings: sodium salts
T1 construct: purified from boar sperm; from tissue; host or cells: boar sperm
Protocol: A control using the buffer solution without the test compound added is also run. A 200 μl-sample of the incubation mixture is then withdrawn and is added to a cuvette containing BAPNA (1 ml.) and triethanolamine buffer (2 ml.). The mixture is stirred and placed in a Gilford recording spectrophotometer. The increase in optical density at 383 nm is measured. One unit of acrosin activity is defined as the amount of acrosin which will cause an increase in optical density at 383 nm. of 0.001/minute. One unit of inhibitory activity is defined as the amount of inhibitor which will cause a reduction in the increase in optical density at 383 nm. of 0.001/minute.

[2] = tested on: cumulus oophorus of rabbit ova; test: Removal of cumulus oophorus from ova by hyaluronidase, in vitro; type: cell-based; settings: 10 μl. of 10 mg./ml. solution in 1 ml medium, 37° C.; sulfate
Protocol: (§1) In the absence of sodium n-tetradecyl sulfate, complete removal of the cumulus oophorus and zona pellucida is observed.
Female rabbits are given 100 units of pregnant mares serum (PMS), IM, and 134 units of HCG, IV. After 13 hours the animals are sacrificed, and the ovaries are excised. The ovaries are submerged in calcium-free Ringer's solution containing 20% rabbit serum which had been heated to 55° C. for 20 minutes. Ova with cumulus intact are removed and placed in calcium-free Ringer's solution for incubation at 37° C. Hyaluronidase (10 μl.) of a 10 mg./ml. solution in calcium-free Ringer's solution is added to 20 ova in 1 ml. of the incubation medium. To 10 ova in the same medium is added 10 μl. of a solution of sodium n-tetradecyl sulfate (10 mg./ml.) in calcium-free Ringer's solution. To 10 other ova in the same media is added 10 μl. of calcium-free Ringer's solution as control. The mixtures are incubated at 37° C., and the cumulus oophorus is examined at 15 minute intervals with an American Optical stereomicroscope. In the absence of sodium tetradecyl sulfate, the cumulus oophorus is completely removed.

mice = settings: I.P. (mice); cited from earlier work
[3] = tested on: zona pellucida of rabbit ova; test: Removal of zona pellucida from ova by acrosin, in vitro; type: cell-based; settings: 10 μl. of 10 mg./ml. solution, 37° C.; sulfate
Protocol: as §1
Female rabbits are given 100 units of pregnant mares serum (PMS), IM, and 134 units of HCG, IV. After 13 hours the animals are sacrificed and the ovaries are excised. The ovaries are submerged in calcium-free Ringer's solution. Ova are removed and placed in 1 ml. of calcium-free Ringer's solution The solutions are all shaken vigorously for 5 to 10 minutes, which rids the ova of the cumulus oophorus and the corona radiata. Acrosin (isolated from boar sperm) (100 μl., of a solution containing 2000 U/ml. in 0.1 M sodium acetate and 0.02 M calcium chloride) is added to each of 10 ova. To each of 10 other ova in the same medium is added 10 μl. of solution of sodium n-tetradecyl sulfate (10 mg./ml.) in calcium-free Ringer's solution. To 10 other ova is added […]. of calcium-free Ringer's solution as a control. The solutions are all incubated at 37° C. The zona pellucida is observed at 15 minute intervals with an American Optical stereomicroscope. In the absence of sodium n-tetradecyl sulfate, the zona pellucida is completely removed.

[4] = Drug release rate in vivo, intrauterine medicated rubber rods; parameters: species or system rabbit; settings: uterine horn
Protocol: (a) Dimethylpolysiloxane rubber rods (3 mm. diameter shaved to 2 mm.) weighing 40 mg. each and containing 5, 10, or 20% (W/W) of sodium n-tetradecyl sulfate (prepared by Example 3, Method B, lots 218-1, 225-1, and 218-2, respectively) are inserted into the right uterine horn of virgin Dutch -belted female rabbits, as follows:
After 60 days the animals in Group 1 are sacrificed and the rubber rods are removed, washed, and extracted continuously with methanol for 24 hours to remove the remaining sodium n-tetradecyl sulfate. The methanol extract is evaporated. The residue is dissolved in 10% methanol-water and assayed for sodium n-tetradecyl sulfate by the methylene blue method. The amount of active compound remaining in the rod is subtracted from the amount originally present in the rod, and the difference is assumed to be the amount released during the time period. After 120 days or […] the animals in Group 2 and Group 3, respectively, are sacrificed, and the rods were removed and treated as above described. The release of sodium n-tetradecyl sodium sulfate into the uterine fluids, as determined by the afore-described test procedure, after 60, 120, and 180 days is shown in Table 8, below: […]

T1 sequence (P08001 40-338 limits assumed): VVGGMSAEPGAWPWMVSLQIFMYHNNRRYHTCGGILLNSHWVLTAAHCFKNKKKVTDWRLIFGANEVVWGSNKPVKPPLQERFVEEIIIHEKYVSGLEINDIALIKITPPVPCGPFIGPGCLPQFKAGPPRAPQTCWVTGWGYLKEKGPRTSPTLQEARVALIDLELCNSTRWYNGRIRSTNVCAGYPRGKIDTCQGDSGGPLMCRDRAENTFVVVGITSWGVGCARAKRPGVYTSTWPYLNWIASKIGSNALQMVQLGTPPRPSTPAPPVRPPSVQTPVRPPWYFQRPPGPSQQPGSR
T1 sequence (P08001 17-39 limits assumed): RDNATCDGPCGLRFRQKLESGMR

## CCCCCCCCCCCCCCOS(=O)(=O)[O-].[Na+] [n-tetradecyl, sodium n-tetradecyl sulfate]
[1]; Conc. of Test Solution 1 Mg/ml
  Inhibition (units/mg.): 960,000 units/mg.
[1]; Conc. of Test Solution 10 Mg/ml
  Inhibition (units/mg.): 14,200 units/mg.
[2]
  state of cumulus oophorus in presence of hyaluronidase: remains substantially intact
mice
  LD50: 342 mg/kg
[3]
  state of zona pellucida in presence of acrosin: remains substantially intact
[4]; 5% compound in rod, 60 days
  Amount of sodium n-tetradecyl sulfate released (μg. per day): 2.25 μg. per day
[4]; 5% compound in rod, 120 days
  Amount of sodium n-tetradecyl sulfate released (μg. per day): 1.80 μg. per day
[4]; 5% compound in rod, 180 days
  Amount of sodium n-tetradecyl sulfate released (μg. per day): 3.60 μg. per day
[4]; 10% compound in rod, 60 days
  Amount of sodium n-tetradecyl sulfate released (μg. per day): 22.1 μg. per day
[4]; 10% compound in rod, 120 days
  Amount of sodium n-tetradecyl sulfate released (μg. per day): 13.7 μg. per day
[4]; 20% compound in rod, 60 days
  Amount of sodium n-tetradecyl sulfate released (μg. per day): 62.4 μg. per day
[4]; 20% compound in rod, 120 days
  Amount of sodium n-tetradecyl sulfate released (μg. per day): 33.5 μg. per day
